One assay concerns the target PHF8 (Homo sapiens (Human), UniProt Q9UPP1). As to the kind of experiment: PHF8 in vitro enzyme inhibition assay (TR-FRET). Type of assay: biochemical. The conditions noted are these: 3 nM PHF8, H3K9me1-biotin peptide. The source says:
(§1) This assay determines the ability of a test compound to inhibit FBXL11, FBXL10, and PHF8 demethylase activity. Baculovirus expressed FBXL11 (GenBank Accession #NM_012308, AA1-1162) was purchased from BPS Bioscience (Cat#50102). Baculovirus expressed FBXL10 (GenBank Accession #NM_032590, AA 1-650) was purchased from BPS Bioscience (Cat #50120). Baculovirus expressed PHF8 (GenBank Accession NP_055922.1) was purchased from Active Motif (Cat#31435).
The ability of test compounds to inhibit the activity of PHF8 was determined in 384-well plate format under the following reaction conditions: 3 nM PHF8, 200 nM H3K9me1-biotin labeled peptide (Anaspec cat #64358), 0.5 μM alpha-ketoglutaric acid in assay buffer of 50 mM HEPES, pH7.3, 0.005% Brij35, 0.5 mM TCEP, 0.2 mg/ml BSA, 50 μM sodium L-ascorbate, and 5 μM ammonium iron(II) sulfate. Reaction product was determined quantitatively by TR-FRET after the addition of detection reagent Phycolink Streptavidin-allophycocyanin (Prozyme) and Europium-anti-unmodified-histone H3 lysine 9/lysine27 (H3K9/K27) antibody (PerkinElmer) in the presence of 5 mM EDTA in LANCE detection buffer (PerkinElmer) at a final concentration of 25 nM and 0.5 nM, respectively.
The assay reaction was initiated by the following: 2 μl of the mixture of 600 nM H3K9me1-biotin labeled peptide and 1.5 μM alpha-ketoglutaric acid with 2 μl of 11-point serial diluted inhibitor in 3% DMSO were added to each well of the plate, followed by the addition of 2 μl of 9 nM PHF8 to initiate the reaction. The reaction mixture was incubated at room temperature for 15 minutes, and terminated by the addition of 6 μl of 5 mM EDTA in LANCE detection buffer containing 50 nM Phycolink Streptavidin-allophycocyanin and 1 nM Europium-anti-unmodified H3K9/K27 antibody. Plates were read by EnVision Multilabel Reader in TR-FRET mode (excitation at 320 nm, emission at 615 nm and 665 nm) after 1 hour incubation at room temperature. A ratio was calculated (665/615) for each well and fitted to determine inhibition constant (IC50).
(§2) The ability of the compounds disclosed herein to inhibit demethylase activity was quantified and the respective IC50 value was determined.

The next assay concerns the target FBXL10 (Homo sapiens (Human), UniProt Q8NHM5). The experiment in a line: FBXL10 in vitro enzyme inhibition assay (AlphaScreen). The assay is classed as biochemical. The conditions noted are these: 0.3 nM FBXL10, H3K36me2-biotin peptide.
Text: as §1
The ability of test compounds to inhibit the activity of FBXL10 was determined in 384-well plate format under the following reaction conditions: 0.3 nM FBXL10, 30 nM H3K36me2-biotin labeled peptide (Anaspec cat #64442), 0.2 μM alpha-ketoglutaric acid in assay buffer of 50 mM HEPES, pH7.3, 0.005% Brij35, 0.5 mM TCEP, 0.2 mg/ml BSA, 50 μM sodium L-ascorbate, 5 μM ammonium iron(II) sulfate. Reaction product is determined quantitatively by AlphaScreen detection after the addition of detection reagents anti-H3K36me1 antibody, AlphaScreen® Streptavidin-coated Donor beads, and AlphaScreen® Protein A Acceptor beads in 50 mM HEPES, pH7.3, 10 mM NaCl, 0.005% Brij35, 5 mM EDTA, 2 mg/ml BSA to final 10 μg/ml beads.
The assay reaction was initiated by the following: 3 μl of the mixture of 90 nM H3K36me2-biotin labeled peptide and 0.6 μM alpha-ketoglutaric acid with 3 μl of 11-point serial diluted inhibitor in 3% DMSO are added to each well of 384 well Proxiplate (Perkin Elmer), followed by the addition of 3 μl of 0.9 nM FBXL10 to initiate the reaction. The reaction mixture is incubated at room temperature for 1 hour, and terminated by the addition of 3 μl of appropriate dilution of anti H3K36me1 antibody in 50 mM HEPES, pH7.3, 10 mM NaCl, 0.005% Brij35, 5 mM EDTA, 2 mg/ml BSA. Plates will then incubated at room temperature for 40 minutes, followed by addition of 3 ul of 50 μg/ml AlphaScreen® Streptavidin-coated Donor beads and AlphaScreen® Protein A Acceptor beads in 50 mM HEPES, pH7.3, 10 mM NaCl, 0.005% Brij35, 5 mM EDTA, 2 mg/ml BSA. Plates will then be read by EnVision Multilabel Reader in AlphaScreen mode after minimum 2 hour incubation at room temperature. The AlphaScreen signal for each well is used to determine inhibition constant (IC50).
as §2
A general note: In Alpha technology, singlet oxygen from a donor bead excites a nearby acceptor bead.

Sequence of PHF8 (Q9UPP1 37-1060): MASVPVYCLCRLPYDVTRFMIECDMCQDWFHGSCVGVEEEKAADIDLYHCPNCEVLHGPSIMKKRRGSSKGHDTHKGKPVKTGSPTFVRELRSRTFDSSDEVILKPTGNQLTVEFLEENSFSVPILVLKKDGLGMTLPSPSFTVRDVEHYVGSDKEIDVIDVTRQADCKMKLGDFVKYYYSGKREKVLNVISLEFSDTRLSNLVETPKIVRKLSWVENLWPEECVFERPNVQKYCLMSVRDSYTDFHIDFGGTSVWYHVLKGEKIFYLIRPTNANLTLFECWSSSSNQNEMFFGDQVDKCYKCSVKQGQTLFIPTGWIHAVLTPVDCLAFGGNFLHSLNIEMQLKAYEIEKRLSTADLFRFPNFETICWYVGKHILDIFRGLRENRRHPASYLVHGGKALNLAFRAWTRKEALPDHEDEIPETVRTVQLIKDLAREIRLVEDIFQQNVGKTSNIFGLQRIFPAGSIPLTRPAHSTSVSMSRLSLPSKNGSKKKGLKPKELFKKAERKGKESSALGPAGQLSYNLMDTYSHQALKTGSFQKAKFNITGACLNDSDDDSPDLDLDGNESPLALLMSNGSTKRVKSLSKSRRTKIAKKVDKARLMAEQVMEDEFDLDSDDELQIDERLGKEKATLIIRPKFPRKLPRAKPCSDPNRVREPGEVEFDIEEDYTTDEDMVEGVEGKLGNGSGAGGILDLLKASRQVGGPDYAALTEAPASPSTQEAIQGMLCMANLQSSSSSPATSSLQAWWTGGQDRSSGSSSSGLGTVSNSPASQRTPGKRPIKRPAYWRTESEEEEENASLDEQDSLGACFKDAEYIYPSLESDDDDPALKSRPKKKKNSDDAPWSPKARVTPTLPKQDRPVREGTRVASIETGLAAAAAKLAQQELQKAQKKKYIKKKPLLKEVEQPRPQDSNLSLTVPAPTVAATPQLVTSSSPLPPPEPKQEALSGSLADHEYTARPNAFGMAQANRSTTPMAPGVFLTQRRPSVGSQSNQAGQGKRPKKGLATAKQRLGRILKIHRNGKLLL
Sequence of FBXL10 (Q8NHM5 1-650): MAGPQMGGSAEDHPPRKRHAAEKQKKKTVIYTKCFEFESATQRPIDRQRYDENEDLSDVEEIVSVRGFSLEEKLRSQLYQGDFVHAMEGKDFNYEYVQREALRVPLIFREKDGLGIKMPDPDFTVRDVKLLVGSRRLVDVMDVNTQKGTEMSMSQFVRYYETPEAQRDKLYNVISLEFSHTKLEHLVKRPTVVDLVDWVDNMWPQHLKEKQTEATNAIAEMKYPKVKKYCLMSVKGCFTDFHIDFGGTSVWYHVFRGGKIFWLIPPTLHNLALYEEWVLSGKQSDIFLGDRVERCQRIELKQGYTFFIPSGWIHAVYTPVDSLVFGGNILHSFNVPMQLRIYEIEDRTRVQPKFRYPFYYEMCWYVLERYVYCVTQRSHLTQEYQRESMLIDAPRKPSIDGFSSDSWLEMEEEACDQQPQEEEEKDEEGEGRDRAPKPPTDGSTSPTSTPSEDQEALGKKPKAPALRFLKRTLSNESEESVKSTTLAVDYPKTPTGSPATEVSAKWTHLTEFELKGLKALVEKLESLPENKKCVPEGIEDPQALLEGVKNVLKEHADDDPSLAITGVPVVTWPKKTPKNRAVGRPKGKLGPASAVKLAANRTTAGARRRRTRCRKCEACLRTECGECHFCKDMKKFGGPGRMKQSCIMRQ

One may read the IC50 as the point on the concentration scale where inhibition reaches its midpoint. Higher therefore signals a need for much substance. `Cn1cnc(-c2cc(-c3nn[nH]c3F)ccn2)c1-c1ccc(F)cc1OCC1CC1` [Example 41, 2-[5-[2-(cyclopropylmethoxy)-4-fluorophenyl]-1-methylimidazol-4-yl]-4-(5-fluoro-1H-triazol-4-yl)pyridine]: the IC50 on PHF8 is 1000 to 10000 nM; against FBXL10, not above 100 nM.

For `N#Cc1[nH]nnc1-c1ccnc(-c2cn(CC3CCCc4ccccc43)cn2)c1` (stereo not drawn) [Example 15, 4-[2-[1-(1,2,3,4-tetrahydronaphthalen-1-ylmethyl)imidazol-4-yl]pyridin-4-yl]-1H-triazole-5-carbonitrile], the results for the IC50 at PHF8 and against FBXL10 were 100 to 1000 nM and not above 100 nM, respectively.

With `Fc1[nH]nnc1-c1ccnc(-c2cn(CCc3cccc4ccccc34)cn2)c1` [Example 35, 4-(5-fluoro-1H-triazol-4-yl)-2-[1-(2-naphthalen-1-ylethyl)imidazol-4-yl]pyridine], the figures for the IC50 on PHF8 and on FBXL10 were 100 to 1000 nM and not above 100 nM, respectively.

Take `Cc1cccc(Cn2cnc(-c3cc(-c4c[nH]nn4)ccn3)c2)c1F` [Example 28, 2-[1-[(2-fluoro-3-methylphenyl)methyl]imidazol-4-yl]-4-(1H-triazol-4-yl)pyridin]: the IC50 is 100 to 1000 nM at PHF8 and not above 100 nM on FBXL10.

Take `Cn1cnc(-c2cc(-c3nn[nH]c3C#N)ccn2)c1-c1ccc(F)cc1OCC1CC1` [Example 39, 4-[2-[5-[2-(cyclopropylmethoxy)-4-fluorophenyl]-1-methylimidazol-4-yl]pyridin-4-yl]-1H-triazole-5-carbonitrile]: the IC50 against PHF8 is 1000 to 10000 nM; against FBXL10, not above 100 nM.

Consider `Clc1[nH]nnc1-c1ccnc(-c2cn(CCc3cccc4ccccc34)cn2)c1` [Example 36, 4-(5-chloro-1H-triazol-4-yl)-2-[1-(2-naphthalen-1-ylethyl)imidazol-4-yl]pyridine], for which the IC50 at PHF8 is 1000 to 10000 nM; against FBXL10, not above 100 nM.

As to `c1ccc(OCC2CC2)c(CCn2cnc(-c3cc(-c4c[nH]nn4)ccn3)c2)c1` [Example 11, 2-[1-[2-[2-(cyclopropylmethoxy)phenyl]ethyl]imidazol-4-yl]-4-(1H-triazol-4-yl)pyridine], the IC50 was 100 to 1000 nM against PHF8 and not above 100 nM on FBXL10.

`c1ccc(-c2ccccc2CCn2cnc(-c3cc(-c4c[nH]nn4)ccn3)c2)cc1` [Example 27, 2-[1-[2-(2-phenylphenyl)ethyl]imidazol-4-yl]-4-(1H-triazol-4-yl)pyridine] showed an IC50 at PHF8 of 1000 to 10000 nM.

On to `Cn1cnc(-c2cc(-c3c[nH]nn3)ccn2)c1-c1ccc(F)cc1` [Example 3, 2-[5-(4-fluorophenyl)-1-methylimidazol-4-yl]-4-(1H-triazol-4-yl)pyridine], for which the IC50 against PHF8 is 100 to 1000 nM; against FBXL10, not above 100 nM.

As for `Clc1cccc(Cn2cnc(-c3cc(-c4nn[nH]c4I)ccn3)c2)c1Cl` [Example 19, 2-[1-[(2,3-dichlorophenyl)methyl]imidazol-4-yl]-4-(5-iodo-1H-triazol-4-yl)pyridine], the values for the IC50 on PHF8 and against FBXL10 were 100 to 1000 nM and not above 100 nM, respectively.

Turning to `COc1cccc(Cn2cnc(-c3cc(-c4c[nH]nn4)ccn3)c2)c1F` [Example 30, 2-[1-[(2-fluoro-3-methoxyphenyl)methyl]imidazol-4-yl]-4-(1H-triazol-4-yl)pyridine], the IC50 against PHF8 was 100 to 1000 nM; at FBXL10, not above 100 nM.

Regarding `CC(C)(Cn1cnc(-c2cc(-c3c[nH]nn3)ccn2)c1)c1ccccc1Cl` [Example 32, 2-[1-[2-(2-chlorophenyl)-2-methylpropyl]imidazol-4-yl]-4-(1H-triazol-4-yl)pyridine], the IC50 at PHF8 was 100 to 1000 nM; at FBXL10 it was not above 100 nM.

Consider `Fc1[nH]nnc1-c1ccnc(-c2cn(Cc3cccc(Cl)c3Cl)cn2)c1` [Example 20, 2-[1-[(2,3-dichlorophenyl)methyl]imidazol-4-yl]-4-(5-fluoro-1H-triazol-4-yl)pyridine], for which the IC50 against PHF8 was 100 to 1000 nM; at FBXL10, not above 100 nM.

On to `CC(Cc1ccccc1)n1cnc(-c2cc(-c3c[nH]nn3)ccn2)c1` (stereo not drawn) [Example 33, 2-[1-(1-phenylpropan-2-yl)imidazol-4-yl]-4-(1H-triazol-4-yl)pyridine], for which the IC50 against PHF8 lay within 1000 to 10000 nM.

Consider `N#Cc1[nH]nnc1-c1ccnc(-c2cn(Cc3ccccc3Cl)cn2)c1` [Example 13, 4-[2-[1-[(2-chlorophenyl)methyl]imidazol-4-yl]pyridin-4-yl]-1H-triazole-5-carbonitrile], for which the IC50 is 1000 to 10000 nM at PHF8 and not above 100 nM on FBXL10.

The compound `Fc1c(Cn2cnc(-c3cc(-c4c[nH]nn4)ccn3)c2)cccc1OC(F)(F)F` [Example 26, 2-[1-[[2-fluoro-3-(trifluoromethoxy)phenyl]methyl]imidazol-44-yl]-4-(1H-triazol-4-yl)pyridine] came in with an IC50 on PHF8 of 1000 to 10000 nM.

For the compound `Ic1[nH]nnc1-c1ccnc(-c2cn(CCc3cccc4ccccc34)cn2)c1` [Example 38, 4-(5-iodo-1H-triazol-4-yl)-2-[1-(2-naphthalen-1-ylethyl)imidazol-4-yl]pyridine], the values for the IC50 against PHF8 and against FBXL10 were more than 10000 nM and not above 100 nM, respectively.

As for `Cn1cnc(-c2cc(-c3nn[nH]c3Cl)ccn2)c1-c1ccc(F)cc1OCC1CC1` [Example 40, 4-(5-chloro-1H-triazol-4-yl)-2-[5-[2-(cyclopropylmethoxy)-4-fluorophenyl]-1-methylimidazol-4-yl]pyridine], the IC50 against PHF8 was more than 10000 nM; on FBXL10, not above 100 nM.

Turning to `FC(F)(F)c1[nH]nnc1-c1ccnc(-c2cn(CCc3cccc4ccccc34)cn2)c1` [Example 37, 2-[1-(2-naphthalen-1-ylethyl)imidazol-4-yl]-4-[5-(trifluoromethyl)-1H-triazol-4-yl]pyridine], the IC50 is more than 10000 nM on PHF8 and not above 100 nM against FBXL10.

As for `FC(F)(F)COc1ccccc1CCn1cnc(-c2cc(-c3c[nH]nn3)ccn2)c1` [Example 10, 4-(1H-triazol-4-yl)-2-[1-[2-[2-(2,2,2-trifluoroethoxy)phenyl]ethyl]imidazol-4-yl]pyridine], the concentration for half-maximal inhibition (IC50) against PHF8 is 100 to 1000 nM; at FBXL10 it was not above 100 nM.

As for `c1ccc(COc2ccccc2CCn2cnc(-c3cc(-c4c[nH]nn4)ccn3)c2)cc1` [Example 17, 2-[1-[2-(2-phenylmethoxyphenyl)ethyl]imidazol-4-yl]-4-(1H-triazol-4-yl)pyridine], the figures for the IC50 on PHF8 and against FBXL10 were 1000 to 10000 nM and not above 100 nM, respectively.

Consider `N#Cc1[nH]nnc1-c1ccnc(-c2cn(CCc3cccc4ccccc34)cn2)c1` [Example 16, 4-[2-[1-(2-naphthalen-1-ylethyl)imidazol-4-yl]pyridin-4-yl]-1H-triazole-5-carbonitrile], for which the IC50 against PHF8 was 100 to 1000 nM; against FBXL10 it was not above 100 nM.

For the compound `Fc1c(Cl)cccc1Cn1cnc(-c2cc(-c3c[nH]nn3)ccn2)c1` [Example 29, 2-[1-[(3-chloro-2-fluorophenyl)methyl]imidazol-4-yl]-4-(1H-triazol-4-yl)pyridine], the IC50 at PHF8 and on FBXL10 was not above 100 nM throughout.

With `FC(F)(F)c1ccccc1CCn1cnc(-c2cc(-c3c[nH]nn3)ccn2)c1` [Example 31, 4-(1H-triazol-4-yl)-2-[1-[2-[2-(trifluoromethyl)phenyl]ethyl]imidazol-4-yl]pyridine], the IC50 on PHF8 was 100 to 1000 nM; on FBXL10, not above 100 nM.

For the origin of these results see patent US10071984B2, “Histone demethylase inhibitors” (Celgene Quanticel Research, Inc., priority 2014, dated 2018).
